Numbered stars: 1 amine (or outer) side, 2 acyl side, 3 side chain; on linkers, the order of the positions; unused ones are H or OH. Square brackets hold non-standard residues; d marks the D form. Peptide text beside a SMILES is read from it. Gly(N-4-hydroxybenzyl) = O=C(O)CNCc1ccc(O)cc1; X1 = CSCCN(CC(=O)[*:2])[*:1]; Nlys = NCCCCNCC(=O)O
Assays:
[1] = Degradation half-life in human liver S9 fraction (HPLC); type: in vitro ADME
Description: To measure the ex vivo stability of the eight analogs comprising a β^3-amino acid residue, the degradation half-life of each analog was measured in a human liver S9 fraction. The degradation half-life was measured by culturing the peptide and serum together at 37° C. and measuring the degree to which the compound was reduced using HPLC at each hour.
The ex vivo stability of the analogs to which a peptoid residue was introduced was measured using the same method as the stability measurement method for the analogs comprising a β-amino acid residue. […] On the other hand, it was confirmed that K peptoid, KY peptoid, and KM peptoid had very high stability so that more than half of them was not degraded even after 24 hours (FIG. 17).

neutrophils [2] = test: Superoxide anion (ROS) production in neutrophils; type: cell-based
Description: The effect of superoxide anion production in neutrophils by the peptoid-comprising analogs in which a peptoid residue was substituted for K, Y, and M in the structure of WKYMVm was measured.

neutrophils [3] = test: Degranulation activity of neutrophils (beta-hexosaminidase activity); type: cell-based
Description: The degranulation activity of neutrophils by the analogs in which each amino acid in the structure of WKYMVm was substituted with a β-amino acid was compared and analyzed by measuring beta-hexosaminidase activity.
The degranulation activity of neutrophils by the peptoid-containing analogs in which a peptoid residue was substituted for K, Y, and M in the structure of WKYMVm was measured.

FIG. 17 = test: FIG. 17
Text: Table printed on a drawing sheet, FIG. 17

neutrophils [4] = test system: neutrophils
FPR2 = FPR2 (Homo sapiens, UniProt P25090); test: cell-based; conditions: for increase in intracellular calcium ions through activation of FPR2 (in words): FPR2-expressing RBL-2H3 cell line
Description: To investigate whether activation of FPR2 is induced by the WKYMVm peptide analogs, changes in calcium ions were measured in RBL-2H3 cell line that artificially expressed FPR2.

FPR1 = FPR1 (Homo sapiens, UniProt P21462); test: cell-based; conditions: for increase in intracellular calcium ions through activation of FPR1 (in words): FPR1-expressing RBL-2H3 cell line
Description: To investigate whether activation of FPR1, which is important in regulating the activity of innate immune cells, is induced by the WKYMVm peptide analogs, changes in calcium ions were measured in RBL-2H3 cell line, a type of mast cell that artificially expressed FPR1. […] On the other hand, an increase in intracellular calcium ions by WKYMVβm (V is a β-amino acid) through activation of FPR1 was not observed.

neutrophils [5] = test: Neutrophil chemotaxis assay using a Boyden chamber; type: cell-based; conditions: for chemotactic migration of neutrophils: from 1 nM or 10 nM to 1 μM
Description: To investigate the effect of the WKYMVm peptide analogs on the regulation of immune cell mobility, which a representative function of FPR, a chemotaxis assay was performed using a Boyden chamber.
To measure the in vitro innate immune activity of four peptides comprising one non-natural β^3-amino acid residue, the effect of enhancing neutrophil mobility was measured.

【FIG 16】 = test: 【FIG 16】
Text: Table printed on a drawing sheet, 【FIG 16】

[6] = human liver S9 fraction, 37° C., 24-hour measurement period, read-out: degradation half-life
[7] = human liver S9 fraction, 37° C.

Chain of FPR1 (P21462 whole entry): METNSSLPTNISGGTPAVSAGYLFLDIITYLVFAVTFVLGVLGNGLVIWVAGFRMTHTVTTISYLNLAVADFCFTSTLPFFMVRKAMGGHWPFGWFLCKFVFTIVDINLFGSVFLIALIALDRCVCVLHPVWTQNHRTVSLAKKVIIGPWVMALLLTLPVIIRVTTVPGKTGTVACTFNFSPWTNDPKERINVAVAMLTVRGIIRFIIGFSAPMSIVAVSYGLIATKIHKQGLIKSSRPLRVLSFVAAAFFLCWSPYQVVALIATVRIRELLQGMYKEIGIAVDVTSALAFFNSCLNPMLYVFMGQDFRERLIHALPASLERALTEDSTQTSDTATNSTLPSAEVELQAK
Chain of FPR2 (P25090 whole entry): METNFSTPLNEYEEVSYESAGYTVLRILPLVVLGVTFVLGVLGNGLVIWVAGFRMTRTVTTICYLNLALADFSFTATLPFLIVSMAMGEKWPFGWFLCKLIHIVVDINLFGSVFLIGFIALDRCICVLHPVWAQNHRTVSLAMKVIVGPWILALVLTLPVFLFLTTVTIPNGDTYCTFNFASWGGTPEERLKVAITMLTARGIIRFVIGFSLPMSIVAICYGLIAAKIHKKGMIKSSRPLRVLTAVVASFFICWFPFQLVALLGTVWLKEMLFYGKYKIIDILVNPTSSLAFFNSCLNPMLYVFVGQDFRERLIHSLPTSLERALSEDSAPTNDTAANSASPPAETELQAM

## CSCC[C@H](NC(=O)[C@H](Cc1ccc(O)cc1)NC(=O)CN(CCCCN)C(=O)[C@@H](N)Cc1c[nH]c2ccccc12)C(=O)N[C@H](C(=O)N[C@H](CCSC)C(N)=O)C(C)C [K peptoid]
[1]; [6]
  Half-Life: > 24 h
Neutrophils [2]
  superoxide anion production in neutrophils: effectively promote superoxide anion production
Neutrophils [3]
  degranulation activity of neutrophils: promoted the degranulation activity of neutrophils to the extent similar to the WKYMVm peptide

## CSCC[C@@H](NC(=O)[C@@H](NC(=O)CN(CCSC)C(=O)[C@H](Cc1ccc(O)cc1)NC(=O)CN(CCCCN)C(=O)[C@@H](N)Cc1c[nH]c2ccccc12)C(C)C)C(N)=O [KM peptoid] (H-W[Nlys]Y[X1]V[dM]-NH2)
[1]; human, s9
  Half-Life: > 24 h

## CSCC[C@H](NC(=O)CN(Cc1ccc(O)cc1)C(=O)CN(CCCCN)C(=O)[C@@H](N)Cc1c[nH]c2ccccc12)C(=O)N[C@H](C(=O)N[C@H](CCSC)C(N)=O)C(C)C [KY peptoid] (H-W[Nlys][Gly(N-4-hydroxybenzyl)]MV[dM]-NH2)
[1]; human, s9
  Half-Life: > 24 h

## CSCC[C@@H](NC(=O)[C@@H](NC(=O)CN(CCSC)C(=O)[C@H](Cc1ccc(O)cc1)NC(=O)[C@H](CCCCN)NC(=O)[C@@H](N)Cc1c[nH]c2ccccc12)C(C)C)C(N)=O [M peptoid] (H-WKY[X1]V[dM]-NH2)
FIG. 17
  Half-Life: 2.5 h
Neutrophils [2]
  superoxide anion production in neutrophils: effectively promote superoxide anion production
Neutrophils [3]
  degranulation activity of neutrophils: promoted the degranulation activity of neutrophils to the extent similar to the WKYMVm peptide

## CSCC[C@@H](CC(=O)N[C@H](C(=O)N[C@H](CCSC)C(N)=O)C(C)C)NC(=O)[C@H](Cc1ccc(O)cc1)NC(=O)[C@H](CCCCN)NC(=O)[C@@H](N)Cc1c[nH]c2ccccc12 [WKYMβVm]
Neutrophils [4]
  calcium ion-increasing effect in neutrophils: highly induced
FPR2
  EC50: 0.014 µM
  increase in intracellular calcium ions through activation of FPR2 (in words): increase in calcium ions in a concentration-dependent manner was observed
FPR1
  EC50: 0.431 µM
  increase in intracellular calcium ions through activation of FPR1 (in words): increase in calcium ions in a concentration-dependent manner was also observed
Neutrophils [5]
  chemotactic migration of neutrophils: effectively induce chemotactic migration of neutrophils in a concentration-dependent manner
[1]; [7]
  degradation half-life / ex vivo stability compared to the WKYMVm peptide (in words): half-life similar to that of the WKYMVm peptide
Neutrophils [2]
  superoxide anion production in neutrophils: induce superoxide anion production very effectively to a similar extent as the WKYMVm peptide
Neutrophils [3]
  degranulation activity of neutrophils: induced the degranulation activity of neutrophils very effectively to a similar extent as the WKYMVm peptide

## CSCC[C@H](NC(=O)C[C@H](Cc1ccc(O)cc1)NC(=O)[C@H](CCCCN)NC(=O)[C@@H](N)Cc1c[nH]c2ccccc12)C(=O)N[C@H](C(=O)N[C@H](CCSC)C(N)=O)C(C)C [WKYβMVm]
Neutrophils [4]
  calcium ion-increasing effect in neutrophils: highly induced
FPR2
  EC50: 0.0139 µM
  increase in intracellular calcium ions through activation of FPR2 (in words): increase in calcium ions in a concentration-dependent manner was observed
FPR1
  EC50: 0.754 µM
  increase in intracellular calcium ions through activation of FPR1 (in words): increase in calcium ions in a concentration-dependent manner was also observed
Neutrophils [5]
  chemotactic migration of neutrophils: effectively induce chemotactic migration of neutrophils in a concentration-dependent manner
[1]; [7]
  degradation half-life / ex vivo stability compared to the WKYMVm peptide (in words): half-life similar to that of the WKYMVm peptide
Neutrophils [2]
  superoxide anion production in neutrophils: induce superoxide anion production very effectively to a similar extent as the WKYMVm peptide
Neutrophils [3]
  degranulation activity of neutrophils: induced the degranulation activity of neutrophils very effectively to a similar extent as the WKYMVm peptide

## CSCC[C@@H](CC(=O)N[C@H](C(=O)N[C@H](CCSC)C(N)=O)C(C)C)NC(=O)C[C@H](Cc1ccc(O)cc1)NC(=O)[C@H](CCCCN)NC(=O)[C@@H](N)Cc1c[nH]c2ccccc12 [WKYβMβVm]
Neutrophils [4]
  calcium ion-increasing effect in neutrophils: highly induced
Neutrophils [5]
  effect of enhancing neutrophil mobility, compared with the WKYMVm peptide: maintained similar activity to the WKYMVm peptide
[1]; [7]
  degradation half-life / ex vivo stability compared to the WKYMVm peptide (in words): improved ex vivo stability
Neutrophils [2]
  superoxide anion production in neutrophils: effectively promoted superoxide anion production
Neutrophils [3]
  degranulation activity of neutrophils: effectively promoted the degranulation activity of neutrophils

## CSCC[C@H](NC(=O)[C@H](Cc1ccc(O)cc1)NC(=O)C[C@H](CCCCN)NC(=O)[C@@H](N)Cc1c[nH]c2ccccc12)C(=O)N[C@H](C(=O)N[C@H](CCSC)C(N)=O)C(C)C [WKβYMVm]
Neutrophils [4]
  calcium ion-increasing effect in neutrophils: highly induced
FPR2
  increase in intracellular calcium ions through activation of FPR2 (in words): increase in calcium ions in a concentration-dependent manner was observed
FPR1
  EC50: 0.261 µM
  increase in intracellular calcium ions through activation of FPR1 (in words): increase in intracellular calcium ions was induced
Neutrophils [5]
  chemotactic migration of neutrophils: effectively induce chemotactic migration of neutrophils in a concentration-dependent manner
[1]; [7]
  half-life increase compared to the WKYMVm peptide: about 1.9 times
Neutrophils [2]
  superoxide anion production in neutrophils: induce superoxide anion production very effectively to a similar extent as the WKYMVm peptide
Neutrophils [3]
  degranulation activity of neutrophils: induced the degranulation activity of neutrophils very effectively to a similar extent as the WKYMVm peptide

## CSCC[C@@H](CC(=O)N[C@H](C(=O)N[C@H](CCSC)C(N)=O)C(C)C)NC(=O)[C@H](Cc1ccc(O)cc1)NC(=O)C[C@H](CCCCN)NC(=O)[C@@H](N)Cc1c[nH]c2ccccc12 [WKβYMβVm]
Neutrophils [4]
  calcium ion-increasing effect in neutrophils: highly induced
Neutrophils [5]
  effect of enhancing neutrophil mobility, compared with the WKYMVm peptide: maintained similar activity to the WKYMVm peptide
[1]; [7]
  degradation half-life / ex vivo stability compared to the WKYMVm peptide (in words): improved ex vivo stability
  half-life increase compared to the WKYMVm peptide: about 3.3 times
Neutrophils [2]
  superoxide anion production in neutrophils: effectively promoted superoxide anion production
Neutrophils [3]
  degranulation activity of neutrophils: effectively promoted the degranulation activity of neutrophils

## CSCC[C@H](NC(=O)C[C@H](Cc1ccc(O)cc1)NC(=O)C[C@H](CCCCN)NC(=O)[C@@H](N)Cc1c[nH]c2ccccc12)C(=O)N[C@H](C(=O)N[C@H](CCSC)C(N)=O)C(C)C [WKβYβMVm]
Neutrophils [4]
  calcium ion-increasing effect in neutrophils: highly induced
FPR2
  EC50: 0.0773 µM
  increase in intracellular calcium ions through activation of FPR2 (in words): activated
FPR1
  EC50: 2.44 µM
  increase in intracellular calcium ions through activation of FPR1 (in words): activated
Neutrophils [5]
  effect of enhancing neutrophil mobility, compared with the WKYMVm peptide: slight decrease in activity
Neutrophils [2]
  superoxide anion production in neutrophils: effectively promoted superoxide anion production
Neutrophils [3]
  degranulation activity of neutrophils: effectively promoted the degranulation activity of neutrophils

## CSCC[C@@H](CC(=O)N[C@H](C(=O)N[C@H](CCSC)C(N)=O)C(C)C)NC(=O)C[C@H](Cc1ccc(O)cc1)NC(=O)C[C@H](CCCCN)NC(=O)[C@@H](N)Cc1c[nH]c2ccccc12 [WKβYβMβVm]
Neutrophils [4]
  calcium ion-increasing effect in neutrophils: highly induced
[1]; [6]
  Half-Life: > 24 h
Neutrophils [2]
  superoxide anion production in neutrophils: did not induce superoxide anion production
Neutrophils [3]
  degranulation activity of neutrophils: did not induce the degranulation activity of neutrophils

## CSCC[C@H](NC(=O)CN(Cc1ccc(O)cc1)C(=O)[C@H](CCCCN)NC(=O)[C@@H](N)Cc1c[nH]c2ccccc12)C(=O)N[C@H](C(=O)N[C@H](CCSC)C(N)=O)C(C)C [Y peptoid] (H-WK[Gly(N-4-hydroxybenzyl)]MV[dM]-NH2)
FIG. 17
  Half-Life: 1.1 h
Neutrophils [2]
  superoxide anion production in neutrophils: effectively promote superoxide anion production
Neutrophils [3]
  degranulation activity of neutrophils: promoted the degranulation activity of neutrophils to the extent similar to the WKYMVm peptide

## WKYMVm (W)
【FIG 16】
  Half-Life: 2.6 h
FIG. 17
  Half-Life: 2.0 h

## WKYMβVm (βM)
【FIG 16】
  Half-Life: 2.4 h

## WKYβMVm (βY)
【FIG 16】
  Half-Life: 2.1 h

## WKβYMVm (βK)
【FIG 16】
  Half-Life: 4.9 h

## WKβYMβVm (βKβM)
【FIG 16】
  Half-Life: 8.7 h

— patent US20250032573A1, “IMMUNITY-ENHANCING PEPTIDE ANALOGS AND USES THEREOF” (RESEARCH & BUSINESS FOUNDATION SUNGKYUNKWAN UNIVERSITY, priority 2023, published 2025)
